These results are taken from patent US11931365B2, “Use of PPAR-delta agonists in the treatment of disease” (Reneo Pharmaceuticals, Inc., priority 2022, dated 2024).

The target in experiment [1] is T1, hPPARα (Homo sapiens, UniProt Q07869).
T1 construct: expressed in transfected cells; host or cells: Jump-In GripTite HEK293
The experiment can be described thus: PPAR receptor transactivation assay (UAS-bla Gal4, HEK293). The experiment is classed as cell-based. Conditions: PPARα. As for the experimental part: (§1) Compound I was tested on all three human PPAR subtypes (hPPAR): hPPARα, hPPARγ, and hPPARδ in vitro assays testing for such activity.
(§2) Compound I was tested on all three human PPAR subtypes (hPPAR): hPPARα, hPPARγ, and hPPARδ. All assays were repeated at least three times for each subtype.
(§3) The genes of interest were synthesized and cloned into an appropriate Jump-In™ retargeting vector following the User Guide of the Jump-in™ T-REx™ HEK293 Retargeting Kit (ThermoFisher Catalog No A15008). For example, the vector will be used to transfect and retarget the Jump-In™ HEK293 GripTite™ parental cell line. Stable pools will be antibiotic-selected for about 21 days and tested for target gene expression by functional assay.
(§4) Jump-In™ GripTite™ HEK293 parental cells were plated at 60-80% confluency in a T-75 flask in growth medium without antibiotics and transfected with a 1:1 ratio of expression construct and R4 integrase expression construct (20 μg DNA total) using Lipofectamine® LTX (50 μL) and PLUS™ Reagent (20 μL). Following a 48 hours incubation, cells were selected with 600 μg/mL Geneticin® and 10 μg/mL Blasticidin for ˜21 days in growth medium.
(§5) Jump-In™ GripTite™ HEK293 rPPAR Alpha, Delta or Gamma UAS-bla-Gal4 cell pools were plated in a 384-well plate format (20,000 cells per well) in OptiMeM without FBS in replicates (n=4). Cells were allowed to adhere for 8 hours before addition of Compound I (1 mM top concentration, 3-fold dilutions, 10-point titration). After 16 hours, the cells were loaded with LiveBLAzer®, a fluorescent BLA substrate that gives a blue/green readout of expressing/non-expressing cells, respectively. The blue/green readout was measured on a fluorescent plate reader (Tecan Safire II).

Experiment [2] deals with T2, hPPARγ (Homo sapiens, UniProt P37231).
T2 construct: expressed in transfected cells; host or cells: Jump-In GripTite HEK293
T2 sequence (P37231 whole entry): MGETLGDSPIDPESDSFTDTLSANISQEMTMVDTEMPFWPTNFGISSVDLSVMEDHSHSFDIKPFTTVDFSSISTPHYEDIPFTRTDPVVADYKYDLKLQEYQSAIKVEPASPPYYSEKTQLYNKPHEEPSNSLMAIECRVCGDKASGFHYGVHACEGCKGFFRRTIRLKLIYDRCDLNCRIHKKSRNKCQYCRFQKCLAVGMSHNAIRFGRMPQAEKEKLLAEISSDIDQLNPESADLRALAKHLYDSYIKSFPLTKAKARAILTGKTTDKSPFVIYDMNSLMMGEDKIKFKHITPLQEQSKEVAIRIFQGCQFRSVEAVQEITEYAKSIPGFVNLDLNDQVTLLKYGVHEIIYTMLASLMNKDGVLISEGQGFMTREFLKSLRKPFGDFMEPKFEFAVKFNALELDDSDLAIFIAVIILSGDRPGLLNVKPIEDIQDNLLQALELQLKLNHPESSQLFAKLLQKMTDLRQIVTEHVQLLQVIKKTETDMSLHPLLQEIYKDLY
Described as above. The experiment is classed as cell-based. As for the experimental part:
as §1, §2, §3, §4, §5

Experiment [3] addresses T3, hPPARδ (Homo sapiens, UniProt Q03181).
T3 construct: expressed in transfected cells; host or cells: Jump-In GripTite HEK293
T3 sequence (Q03181 1-441): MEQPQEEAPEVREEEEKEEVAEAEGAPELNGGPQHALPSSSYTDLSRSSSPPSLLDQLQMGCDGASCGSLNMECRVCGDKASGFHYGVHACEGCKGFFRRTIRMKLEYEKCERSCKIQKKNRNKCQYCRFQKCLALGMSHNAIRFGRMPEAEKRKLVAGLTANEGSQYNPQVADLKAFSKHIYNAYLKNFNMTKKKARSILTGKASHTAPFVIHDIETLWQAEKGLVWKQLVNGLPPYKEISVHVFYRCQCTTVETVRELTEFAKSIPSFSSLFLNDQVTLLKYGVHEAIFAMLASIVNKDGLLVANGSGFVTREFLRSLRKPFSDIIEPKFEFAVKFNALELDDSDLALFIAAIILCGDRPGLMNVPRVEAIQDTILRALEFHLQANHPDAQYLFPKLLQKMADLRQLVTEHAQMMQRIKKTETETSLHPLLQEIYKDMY
The description is as above. The experiment is classed as cell-based. As for the experimental part:
as §1, §2, §3, §4, §5

In experiment [4] the target is LXRα (Homo sapiens, UniProt Q13133). The experiment can be described thus: Nuclear receptor activity.
Chain of LXRα (Q13133 whole entry): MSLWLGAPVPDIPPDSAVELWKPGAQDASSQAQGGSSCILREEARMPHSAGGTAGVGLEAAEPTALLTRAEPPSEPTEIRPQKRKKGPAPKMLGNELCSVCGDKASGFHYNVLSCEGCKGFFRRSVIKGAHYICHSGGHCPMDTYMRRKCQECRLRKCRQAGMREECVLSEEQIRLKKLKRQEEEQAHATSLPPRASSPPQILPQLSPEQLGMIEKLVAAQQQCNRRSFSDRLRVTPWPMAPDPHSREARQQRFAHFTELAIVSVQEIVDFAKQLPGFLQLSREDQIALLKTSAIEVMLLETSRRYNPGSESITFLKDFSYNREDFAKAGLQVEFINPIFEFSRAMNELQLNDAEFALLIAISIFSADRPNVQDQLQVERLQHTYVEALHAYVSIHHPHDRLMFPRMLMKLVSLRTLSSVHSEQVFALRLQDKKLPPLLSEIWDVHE
Experiment [5] relates to human muscle cell lines. The experiment can be described thus: Fatty acid oxidation in muscle cell lines. The experiment is classed as cell-based.

T1 sequence (Q07869 whole entry): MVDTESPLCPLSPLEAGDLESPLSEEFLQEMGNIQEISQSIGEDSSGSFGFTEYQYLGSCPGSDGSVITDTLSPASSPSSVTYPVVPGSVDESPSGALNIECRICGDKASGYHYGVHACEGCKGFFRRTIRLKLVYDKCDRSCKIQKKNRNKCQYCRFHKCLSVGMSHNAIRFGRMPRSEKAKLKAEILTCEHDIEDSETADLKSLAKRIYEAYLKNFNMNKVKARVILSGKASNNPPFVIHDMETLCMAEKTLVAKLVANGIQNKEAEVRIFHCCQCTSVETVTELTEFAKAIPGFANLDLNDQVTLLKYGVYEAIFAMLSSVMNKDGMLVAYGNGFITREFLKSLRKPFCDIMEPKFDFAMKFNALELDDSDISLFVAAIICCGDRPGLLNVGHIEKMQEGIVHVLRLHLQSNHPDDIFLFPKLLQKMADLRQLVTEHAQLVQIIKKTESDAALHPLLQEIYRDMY

The term EC50 denotes the concentration giving half of the maximal effect. Consider `Cc1cc(OC/C=C(/c2ccc(F)cc2)c2ccc(C#CCN3CCOCC3)cc2)ccc1OCC(=O)O` [Compound I, (E)-2-(4-((3-(4-fluorophenyl)-3-(4-(3-morpholinoprop-1-yn-1-yl)phenyl)allyl)oxy)-2-methylphenoxy)acetic acid], for which the agonist type entry is “partial agonist” in experiment [1], “partial agonist” in experiment [2] (PPARγ) and “full agonist” in experiment [3] (PPARδ). For the same compound, in experiment [2] (human PPARγ), the EC50 was more than 10 µM. In experiment [3] (PPARδ over PPARα), the “selectivity for PPARδ over PPARα” value is 100 fold. Also, in experiment [3] (PPARδ over PPARγ), the “selectivity for PPARδ over PPARγ” value is recorded as 400 fold. Moreover, the “activity on nuclear receptor LXRα” value in experiment [4] is listed as “did not show any”. Moreover, in experiment [5], the fatty acid oxidation entry is recorded as “dose-dependent increase”.
